Results reported in ChEMBL document CHEMBL3232725, “2-Aryl-3H-indol-3-ones: synthesis, electrochemical behaviour and antiplasmodial activities” (Eur J Med Chem, 2014).

Experiments:
Plasmodium falciparum = assay: Antiplasmodial activity against chloroquine-resistant Plasmodium falciparum FcB1 infected in RBC assessed as inhibition of [3H]-hypoxanthine incorporation after 48 hrs by beta-counting; format: functional, organism-based; details: FcB1/Columbia
[1] = Cytotoxicity against human MCF7 cells after 48 hrs by XTT reduction assay; format: cell-based
[2] = Selectivity index, ratio of CC50 for human MCF7 cells to IC50 for chloroquine-resistant Plasmodium falciparum FcB1 infected in RBC; format: functional

Row | SMILES | IC50 (Plasmodium falciparum) [nM] | CC50 at 48 h [1] [nM] | Ratio CC50/IC50 [2]
1 | O=C1C(c2ccccc2)=Nc2ccccc21 | 1330 | 164000 | 135
2 | COc1ccc(C2=Nc3ccccc3C2=O)cc1 | 514 | 38000 | 74
3 | O=C1C(c2ccc(Cl)cc2)=Nc2ccccc21 | 192 | 20300 | 105
4 | O=C1C(c2ccc(O)cc2)=Nc2ccccc21 | 101 | 130000 | 1289
5 | COc1ccc2c(c1)C(=O)C(c1ccccc1)=N2 | 141 | 21000 | 146
6 | COc1ccc(C2=Nc3ccc(OC)cc3C2=O)cc1 | 80 | 30700 | 381.4
7 | COc1ccc2c(c1)C(=O)C(c1ccc(N(C)C)cc1)=N2 | 49 | 20700 | 423.4
8 | COc1ccc2c(c1)C(=O)C(c1ccc(OC(C)C)cc1)=N2 | 88 | 11200 | 127
9 | COc1ccc2c(c1)C(=O)C(c1ccc(O)cc1)=N2 | 99 | 16000 | 164
10 | C[C@H]1[C@H](OC(=O)CCC(=O)O)O[C@@H]2O[C@@]3(C)CC[C@H]4[C@H](C)CC[C@@H]1[C@@]24OO3 [SODIUM ARESUNATE] | 6 | – | –
